Broadly, the melting point is the temperature of the solid-liquid transition. `CC(=O)NC1CCc2c([nH]c3ccc(Br)cc23)C1` (stereo not drawn) came in with a melting point of 210 to 211 °C.
As for `Cc1cccc2nc3c(c(N)c12)CCCC3`, the melting point is 143 to 145 °C.
For `CNC(=O)c1ccc(N2CCN(Cc3cc4c(c(OC(F)F)c3)OC(C)C(=O)N4)CC2)cc1` (stereo not drawn) the value was 210 to 213 °C; for `OCCNCCc1c[nH]c2ccccc12`, 92 °C.
For `CCCCCC(Oc1ccc(C2=CCCCC2)cc1)C(=O)NC(C)C` (stereo not drawn) the value was 86 to 88 °C; for `Cn1cc(C(=O)O)c(=O)c2cc3cc(F)c(N4CCNC(c5ccco5)C4)cc3nc21` (racemic), 258 to 260 °C; for `Cc1nc(-c2ccc(OCC(C)C)c(Br)c2)sc1C(=O)O`, 200 to 202 °C.
With `CCCOc1cc2[nH]c(=O)[nH]c(=O)c2cc1OC` the figure was 259 to 261 °C; with `CCOC(=O)C1CN(C2CC2)c2nc(Sc3ccc(C)cc3)c(F)cc2C1=O` (stereo not drawn), 124 to 125 °C; with `COc1cccc2c(=O)cc(N3CCOCC3)oc12`, 165 °C.
`COc1ccc(S(=O)(=O)NCC(C(=O)NO)C2(CC(C)C)CCN(CCc3ccccc3)C2=O)cc1` (stereo not drawn): the melting point was in the range of 195 to 196 °C.
With `O=C(c1ccoc1)N1CCC(O)(C#Cc2cccc(Cl)c2)CC1` the figure was 93 to 94 °C; with `COCC(COC)Nc1cc(C)nn2c(-c3ccc(Cl)cc3Cl)c(C)cc12`, 154 to 155 °C; with `O=C(Nc1ccc(F)c(C(F)(F)F)c1)C1C(=O)C2CCC(C2)C1=O` (stereo not drawn), 97 to 100 °C.
The compound `CN(O)C(=O)Nc1ccc(Oc2ccc(NC(=O)N(C)O)cc2)cc1` had a melting point of 183 to 184 °C.
In the case of `CCOC(=O)c1cc2c(C(F)(F)F)cc(OCC(=O)OC(C)(C)C)cc2n1C`, the melting point fell in the range of 98 to 100 °C.
For `CCOC(=O)c1cn(-c2ccc(C(F)(F)F)cn2)nc1C(C)C` the value was 94 to 95 °C.
With `COc1cc(-c2cnc3[nH]cc(C(=O)C4(C)CCCCC4)c3n2)cc(OC)c1OC` the figure was 246 to 247 °C; with `CCc1[nH]n(C2CCCC2)c2nc(S(C)(=O)=O)nc(=O)c1-2`, over 300 °C; with `CN1CCc2ccc(C(=O)CCC(=O)N3CCC(c4ccc(Cl)cc4)CC3)cc2CC1`, 143 to 145 °C.
The compound `c1ccc(Cn2cc3c(c2)OCCO3)cc1` came in with a melting point of 69 to 70 °C.
For `N#CCCNC(=O)c1n[nH]cc1NC(=O)C1CCCC1`, the melting point lay within 180 to 181 °C.
Compound `O=S(=O)(Nc1ccc(OCc2ccc3ccccc3n2)cc1)c1ccc(Cl)cc1` had a melting point of 125 °C.
For `CC(C)(OCc1n[nH]c2ccccc12)C(=O)O` the value was 135 to 137 °C; for `COc1cc(N2CCCN(C[C@@H](C)O)CC2)ccc1Nc1ncc2ccc(-c3ccccc3N(C)S(C)(=O)=O)n2n1`, 93 to 99 °C.
With `CC(O)c1c(-c2ccc(F)cc2)cc2c3c1ccn3C(=O)CNC2` (stereo not drawn) the figure was 220 to 222 °C; with `Cc1nc2c(cc1CCCO)c(=O)c(C(=O)NCc1ccc(Cl)cc1)cn2C`, 176 to 177 °C; with `C=CCON=C(C)c1cccc(Oc2nc(OC)cc(OC)n2)c1C(=O)OC`, 76 to 78 °C.
For `Cc1ccc(C)n1-c1nc(S(=O)(=O)Nc2cccc(Cl)c2Cl)n[nH]1` the value was 185 °C.
Take `COc1ccc2c(n1)C1(CO2)C(=O)N(Cc2ccc(Cl)s2)c2ccccc21` (stereo not drawn): the melting point lay within 130 to 132 °C.
For `CC(C)NC(=O)c1ccc(N2CCC(N3C(=O)OCc4ccccc43)CC2)nc1` the value was over 230 °C.
`CCOC(=O)N1CCC(=C2c3ccc(Cl)cc3SCc3cccnc32)CC1` displayed a melting point of 154 to 157 °C.
As to `O=C(Nc1ccc(C(F)(F)F)cc1)NC1CCN(S(=O)(=O)c2ccc(Cl)cc2)CC1`, the melting point was in the range of 266 to 270 °C.
With `CC(C)(NC(=O)C1=C(C(=O)Nc2cc(OC3CCCC3)c(Cl)cc2F)CCCC1)c1ccccc1` the figure was 206 to 207 °C; with `CC(C(=O)O)c1ccc([N+](=O)[O-])c(CC(=O)O)c1` (stereo not drawn), 169 to 171 °C; with `COc1ccc(S(=O)(=O)N2CCc3cccc(-c4cccs4)c32)cc1`, 128 to 129 °C.
On to `CCC(Oc1cccc([N+](=O)[O-])c1)C(=O)NCc1ccccc1` (stereo not drawn), for which the melting point fell in the range of 114 to 116 °C.
On to `SCc1cn2ccccc2n1`, for which the melting point was in the range of 168 to 178 °C.
For `CCc1nc(-c2cccc(C)c2)c(-c2ccnc(NC3CCCC3)c2)s1` the value was 117 to 118 °C; for `NS(=O)(=O)c1ccc(CO)s1`, 70 to 71 °C.
With `O=c1c2c(Cc3cccs3)n[nH]c2c2cccnc2n1-c1cccc(OC(F)(F)F)c1` the figure was 234 to 238 °C; with `O=C(Nc1ccncc1)c1n[nH]c2ccc(-c3cncc4[nH]ccc34)cc12`, over 250 °C; with `CCCCCCCC=CCCCCCCCCC(=O)OCC(O)COC(=O)CCCCCCCC=CCCCCCCCC` (stereo not drawn), 20 to 22 °C.
As for `C[C@@H]1Cc2cc(N3C[C@H](C(N)=O)OC3=O)ccc2N1C(=O)CO`, the melting point lay within 198 to 200 °C.
In turn, `Cn1cc(Cc2ccccc2)c(=O)c(-c2cccc(C(F)(F)F)c2)c1` registered a melting point of 98 to 100 °C.
For `O=C(O)c1cn(C2CC2)c2c(C(F)(F)F)c(F)c(F)cc2c1=O`, the melting point lay within 159 to 162 °C.
For `c1ccc(-c2ccc(-c3nc4c5ccccc5ccn4n3)cc2)cc1` the value was 203 to 205 °C; for `O=C(O)c1cccc(Oc2cccc(-c3nnc(N(Cc4ccc(C(F)(F)P(=O)(O)O)c(Cl)c4)c4ccc(Cl)c(Cl)c4)s3)c2)c1`, 178 to 180 °C.
`CC(C)OC(=O)COc1ccc(CCNS(=O)(=O)c2ccccc2)cc1` yielded a melting point of 56 to 57 °C.
In turn, `CCCCCc1oc(-c2ccc(Cl)cc2)nc1CC(=O)O` yielded a melting point of 136 to 137 °C.
In the case of `Cn1nnnc1SCCCC(=O)c1ccco1`, the melting point lay in the range of 41 to 42 °C.
With `CC(=O)OCC1OC(n2cnc(C#N)n2)C(OC(C)=O)C1OC(C)=O` (stereo not drawn) the figure was 96 to 97 °C; with `CC(C)N(CCCc1ccccc1)[C@H]1CC[C@H](c2ccc(O)cc2)CC1`, 146 to 154 °C; with `COc1cc(OC)c(-c2cccs2)cc1C=O`, 125 to 126 °C.
For `Cn1c(COc2ccc(CC3SC(=O)NC3=O)cc2)nc2ccc(OCCc3ccc(NC(=O)Nc4ccc(C(F)(F)F)cc4)cc3)cc21` (stereo not drawn) the value was 145 to 147 °C.
`S=C(NCCCN1CCN(Cc2ccc(Cl)cc2)CC1)NC1CCCCC1`: the melting point was 127 to 128 °C.
With `CCCCc1cccn1NS(=O)(=O)C1CCCC=C1C(=O)OCC` (stereo not drawn) the figure was 49 to 50 °C.
`Nc1ccc(C(=O)N2CCN(NC(=O)c3ccc(F)cc3)CC2)cc1` showed a melting point of 209 °C.
For `N#CC(=C(C#N)c1ccc(F)cc1)c1ccc(F)cc1` the value was 194 to 195 °C; for `O=P(O)(O)CCCCC(F)(F)C(F)(F)C(F)(F)C(F)(F)F`, 123 to 124 °C; for `CC[C@H](CO)NC(=O)c1ccc(C(=O)N2CCN(c3ncccc3NC(C)C)CC2)nc1`, 85 to 88 °C.
In turn, `CNC(=O)Nc1cc(CC(C)C)ccc1-c1ccccc1S(=O)(=O)Nc1onc(C)c1C` displayed a melting point of 172 to 174 °C.
For `Cc1ccc(C(O)=C(C#N)C(=O)C(C)(C)C)c([N+](=O)[O-])c1` the value was 99 to 102 °C.

For the origin of these results see a melting point compilation (Tetko et al.; mined from patent text by program, amines drawn as free bases though some values may be those of a salt).
